What was measured:
Conditions in all cases: 72 h
KG-1 [1] = assay: cell viability (% survival relative to DMSO control, bortezomib = 0%); higher = less cytotoxic
Procedure, shortened: (§1)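 Seeding density for each of the 10 AML and 5 CML cell lines was titrated to the linear growth range. Cells went into 384-well plates pre-printed in duplicate with compounds at 1, 10, 100, 1000 or 10000 nM and were held for 72 h at 37 °C with 5% CO2. CellTiter-Glo luminescence then provided the readout. Percent survival is expressed relative to vehicle at 100% and a 10 µM positive control at 0%, averaged over duplicates.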

THP-1 [2] = assay: as above
Procedure, shortened: as §1

MOLM-13 [3] = assay: as above
Procedure, shortened: as §1

HEL [4] = assay: as above
Procedure, shortened: as §1

Mono-Mac-6 [5] = assay: as above
Procedure, shortened: as §1

NOMO-1 [6] = assay: as above
Procedure, shortened: as §1

BV-173 [7] = assay: as above
Procedure, shortened: as §1

MV4-11 [8] = assay: as above
Procedure, shortened: as §1

SHI-1 [9] = assay: as above
Procedure, shortened: as §1

K-562 [10] = assay: as above
Procedure, shortened: as §1

KCL-22 [11] = assay: as above
Procedure, shortened: as §1

LAMA-84 [12] = assay: as above
Procedure, shortened: as §1

HL-60 [13] = assay: as above
Procedure, shortened: as §1

KU-812 [14] = assay: as above
Procedure, shortened: as §1

ML-2 [15] = assay: as above
Procedure, shortened: as §1

KG-1 [16] = test system: KG-1
Procedure, shortened: (§2)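 Fifteen myeloid leukaemia cell lines were seeded in RPMI 1640 at densities titrated to the linear growth range and placed in 384-well plates with acoustically pre-printed compounds at five tenfold doses from 1 to 10,000 nM, in duplicate. After 72 h at 37 °C with 5% CO2, luminescent ATP viability was normalised to vehicle and to a positive control at 10 µM, and curves were fitted with a four-parameter log-logistic model. The IC50 was obtained from these fits.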

THP-1 [17] = test system: THP-1
Procedure, shortened: as §2

MOLM-13 [18] = test system: MOLM-13
Procedure, shortened: as §2

HEL [19] = test system: HEL
Procedure, shortened: as §2

Mono-Mac-6 [20] = test system: Mono-Mac-6
Procedure, shortened: as §2

NOMO-1 [21] = test system: NOMO-1
Procedure, shortened: as §2

BV-173 [22] = test system: BV-173
Procedure, shortened: as §2

MV4-11 [23] = test system: MV4-11
Procedure, shortened: as §2

SHI-1 [24] = test system: SHI-1
Procedure, shortened: as §2

K-562 [25] = test system: K-562
Procedure, shortened: as §2

KCL-22 [26] = test system: KCL-22
Procedure, shortened: as §2

LAMA-84 [27] = test system: LAMA-84
Procedure, shortened: as §2

HL-60 [28] = test system: HL-60
Procedure, shortened: as §2

KU-812 [29] = test system: KU-812
Procedure, shortened: as §2

ML-2 [30] = test system: ML-2
Procedure, shortened: as §2

HL-60 [31] = assay: cell viability (% survival relative to DMSO control); higher = less cytotoxic
Procedure, shortened: (§3)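 For each screen, HL-60 cells in RPMI 1640 with 10% FBS carried either DMSO or 100 nM of one of three metabolic inhibitors while the full library was applied at five tenfold concentrations, 1–10,000 nM, in duplicate. Plates were 384-well and were kept 72 h at 37 °C, 5% CO2. Viability, measured by CellTiter-Glo, was normalised to wells with DMSO and with 10 μM proteasome inhibitor. Where area under the curve appears, it was fitted by four-parameter log-logistic models in drc and PharmacoGx.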

HL-60 [32] = assay: area under dose-response curve (viability, 1 nM-10 uM) (fraction (0-1)); higher = more sensitive
Procedure, shortened: as §3

CN(C/C=C/C#CC(C)(C)C)Cc1cccc2ccccc12 [Terbinafine]
cell viability [%]
Conditions	1 nM	10 nM	100 nM	1000 nM	10000 nM
BV-173 [7]	113	92	93.3	96.1	85.3
HEL [4]	101	91.1	110	96.8	96.6
HL-60 [13]	104	107	118	105	93.8
K-562 [10]	97.8	98	106	86.1	88.8
KCL-22 [11]	101	96.2	101	104	93.2
KG-1 [1]	94.1	106	90.9	95.5	92.6
KU-812 [14]	107	95.3	120	94.8	92.9
LAMA-84 [12]	104	97.7	110	101	93.9
ML-2 [15]	102	101	92.2	108	90.3
MOLM-13 [3]	105	98.5	133	90.2	113
MV4-11 [8]	93.7	92.8	102	111	109
Mono-Mac-6 [5]	103	96.2	102	98.7	91.2
NOMO-1 [6]	99.3	101	96.7	103	96.9
SHI-1 [9]	99.4	101	108	99.5	98.9
THP-1 [2]	102	94.6	92	100	94.4

Conditions	IC50 (cell viability) [µM]
BV-173 [22]	> 10
HEL [19]	> 10
HL-60 [28]	> 10
K-562 [25]	> 10
KCL-22 [26]	> 10
KG-1 [16]	> 10
KU-812 [29]	> 10
LAMA-84 [27]	> 10
ML-2 [30]	> 10
MOLM-13 [18]	> 10
MV4-11 [23]	> 10
Mono-Mac-6 [20]	> 10
NOMO-1 [21]	> 10
SHI-1 [24]	> 10
THP-1 [17]	> 10

Clc1ccccc1CN1CCc2sccc2C1 [Ticlopidine]
Conditions	IC50 (cell viability) [µM]
BV-173 [22]	> 10
HEL [19]	> 10
HL-60 [28]	> 10
K-562 [25]	> 10
KCL-22 [26]	> 10
KG-1 [16]	> 10
KU-812 [29]	> 10
LAMA-84 [27]	> 10
ML-2 [30]	> 10
MOLM-13 [18]	> 10
MV4-11 [23]	> 10
Mono-Mac-6 [20]	> 10
NOMO-1 [21]	> 10
SHI-1 [24]	> 10
THP-1 [17]	> 10

CC(C(=O)O)C(=O)O [methylmalonate]
cell viability [%], HL-60 [31]
Conditions	0.001 µM	0.01 µM	0.1 µM	1 µM	10 µM
co-treatment: AZD3965 100 nM	100	96.1	81.8	107	98.6
co-treatment: DMSO vehicle	97.43	99.6	96.753	100.6	99
co-treatment: GSK2194069 100 nM	101	97.9	95.2	106	103.3
co-treatment: pictilisib 100 nM	105	103	87.7	84.2	108.9

HL-60 [32]
Conditions	area under dose-response curve
co-treatment: AZD3965 100 nM	< 0.0301
co-treatment: DMSO vehicle	< 0.0301
co-treatment: GSK2194069 100 nM	< 0.0301
co-treatment: pictilisib 100 nM	< 0.0301
